Results on 2 substances are retold here after patent US6326471A, “Immunogenic peptides of prostate specific antigen” (priority 1998, dated 2001).

One test concerns anti-whole PSA antibody. Briefly: ELISA activity of PSA peptide segments with anti-whole PSA antibody. It counts as binding. Conditions: average of "wet" and "dry" ELISA methods; rank 1 = most reactive of 14 peptides. An excerpt:
The amino acid sequence of PSA was divided into fourteen peptide segments. Thirteen of the peptides were 19-mers to 21-mers and one peptide was a 16-mer. […] Two of the peptides lacked both the proline and the hydrophobic-hydrophilic-hydrophobic region descriptors. The combined presence of the two descriptors correlated extremely well with the immunodominance of PSA peptide segments. The six highest scoring PSA peptides in terms of ELISA activity with anti-whole PSA antibody had both characteristics as did the eighth best. Also, the presence of a central proline in a segment lacking the adjacent hydrophobic, hydrophilic, and hydrophobic region characteristic successfully predicted four of five subdominant (moderately ELISA reactive) epitopes, while the absence of both the proline and the hydrophobic-hydrophilic-hydrophobic region characteristics in a peptide segment correctly predicted the two least ELISA reactive peptide segments.
(ELISA stands for enzyme-linked immunosorbent assay.)

In test [1] the test system is antibody to the alpha subunit of the acetylcholine receptor. The settings on record: without added hydrophobic LI or AI residues; cited from earlier work.

As to “YSTCSGDSGGPLVCNGVLQG [PSA peptide 186-204]”, the ELISA activity rank in the test on anti-whole PSA antibody came out at 11.
With NPDVK, in test [1], the “antibody binding of the peptide alone” value is “could not bind antibody alone”.
